Experimental data reported in the supplement of paper PMC11451515.

Test system: SEM cells
Test: cell viability relative to DMSO control; higher = less cytotoxic
Conditions: 48 h
Method in brief: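 NOMO1 or SEM cells were plated at 500 cells/well and P12-Ichikawa cells at 1000 cells/well in 1536-well plates (5 μl), after each leukemia line had been adapted for at least four passages in each medium. Pin dosing delivered library compounds in DMSO at 11 threefold concentrations, 47 μM to 0.79 nM. CellTiter-Glo One luminescence was read after 48 h at 37°C. Viability is reported as a per-plate percentage of DMSO wells, with cell-free wells as background.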

Cc1ccc([C@@H]2O[C@H](CO)[C@@H](O)[C@H](O)[C@H]2O)cc1Cc1ccc(-c2ccc(F)cc2)s1
cell viability [%]
Conditions	HPLM + 10% dialyzed FBS	RPMI 5 mM glucose + 10% FBS	RPMI 5 mM glucose + 10% dialyzed FBS
0.000781 µM	108	109	113
0.00234 µM	112	117	103
0.00702 µM	117	112	106
0.0211 µM	112	122	118
0.0632 µM	130	114	132
0.19 µM	114	117	119
0.569 µM	119	123	109
1.71 µM	115	121	98.7
5.12 µM	110	111	107
15.4 µM	125	118	116
46.1 µM	101	69.5	71.2
